According to paper PMC11053447, “Human ABC and SLC Transporters: The Culprit Responsible for Unspecific PSMA-617 Uptake?” (Pharmaceuticals, 2024):

Experiments:
human MATE1 = molecular target: T1, human MATE1 (Homo sapiens, UniProt Q96FL8); assay: SLC transporter substrate assay, MDCKII-MATE1-Fin vs control MDCKII-CAT-Fin cells
T1 sequence (Q96FL8 1-570): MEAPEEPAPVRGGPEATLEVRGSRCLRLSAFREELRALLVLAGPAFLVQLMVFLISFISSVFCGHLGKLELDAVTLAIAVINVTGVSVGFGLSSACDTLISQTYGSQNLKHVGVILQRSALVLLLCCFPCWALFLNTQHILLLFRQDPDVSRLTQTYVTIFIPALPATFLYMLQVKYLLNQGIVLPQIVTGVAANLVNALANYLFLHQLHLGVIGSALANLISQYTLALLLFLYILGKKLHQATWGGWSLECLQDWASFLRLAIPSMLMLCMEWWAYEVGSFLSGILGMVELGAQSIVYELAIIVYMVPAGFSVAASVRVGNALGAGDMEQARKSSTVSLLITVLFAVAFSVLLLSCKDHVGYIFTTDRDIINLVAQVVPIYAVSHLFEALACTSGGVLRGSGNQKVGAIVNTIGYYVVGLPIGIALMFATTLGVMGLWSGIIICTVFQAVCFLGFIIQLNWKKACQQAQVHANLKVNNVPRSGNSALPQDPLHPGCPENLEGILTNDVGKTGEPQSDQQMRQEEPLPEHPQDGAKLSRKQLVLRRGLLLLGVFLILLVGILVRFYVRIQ
Protocol: The described cells were plated onto standard 24-well tissue culture plates at densities of 5 × 10^5 cells/well. […] Before starting the experiment, the cells were prepared by removing the medium and washing the cells twice with 300 µL of assay buffer. […] The cells were lysed by adding 300 µL of 0.1N NaOH, they were incubated for 10 min at 37 °C and 100 µL samples were taken from all the wells.
The amount of protein in each well was quantified using the BCA kit for protein determination (Sigma-Aldrich, St Louis, MO, USA). Positive controls were performed using a separate 96-well plate format according to Table S8 in SI4.
SI4. Results of transporter substrate assays (SLC)
Table S8: Parameters of positive controls, control cell lines and plating for SLC transporters assays.
KH: Krebs-Henseleit buffer, HBSS: Hank's balanced salt solution, MES: 2 -(N-morpholino) ethanesulfonic acid, cGMP:
Guanosine cyclic phosphate, E3S: Estrone -3-sulfate, Gly-Sar: Glycylsarcosine, MPP+: 1-methyl-4-phenylpyridinium.
Calculation of fold accumulation values for SLC transporter substrate assays The fold accumulation value was defined as the ratio of uptake of the test substance (TS) or probe substrate into transfected and control cells. If the fold accumulation is > 2 and can be inhibited by a known inhibitor of the transporter, the test substance can be considered as a substrate of the respective transporter.
Fold accumulation = UPTTRP
• UPTTRP: accumulated amount of test substance (TS) or probe substrate in transfected cells normalized by protein content […]
• UPTCTRL: accumulated amount of test substance (TS) or probe substrate in control cells normalized by protein content […]
4.1 Multidrug and toxin extrusion protein MATE1
(MDCKII-MATE1-Fin) and control cells (MDCKII-CAT-Fin) applying 2- and 20-minute incubation periods, measured in SLC transporter substrate assay. […] Concentrations are nominal. […]
control cells (MDCKII-CAT-Fin) applying 2- and 20-minute incubation periods, measured in SLC transporter substrate […]
Compound Nominal In MATE1 Fold

human OAT4 = molecular target: T2, human OAT4 (Homo sapiens, UniProt Q9NSA0); assay: SLC transporter substrate assay, HEK293-OAT4-LV vs control HEK293-Mock-LV cells; conditions: 20 min
T2 sequence (Q9NSA0 1-550): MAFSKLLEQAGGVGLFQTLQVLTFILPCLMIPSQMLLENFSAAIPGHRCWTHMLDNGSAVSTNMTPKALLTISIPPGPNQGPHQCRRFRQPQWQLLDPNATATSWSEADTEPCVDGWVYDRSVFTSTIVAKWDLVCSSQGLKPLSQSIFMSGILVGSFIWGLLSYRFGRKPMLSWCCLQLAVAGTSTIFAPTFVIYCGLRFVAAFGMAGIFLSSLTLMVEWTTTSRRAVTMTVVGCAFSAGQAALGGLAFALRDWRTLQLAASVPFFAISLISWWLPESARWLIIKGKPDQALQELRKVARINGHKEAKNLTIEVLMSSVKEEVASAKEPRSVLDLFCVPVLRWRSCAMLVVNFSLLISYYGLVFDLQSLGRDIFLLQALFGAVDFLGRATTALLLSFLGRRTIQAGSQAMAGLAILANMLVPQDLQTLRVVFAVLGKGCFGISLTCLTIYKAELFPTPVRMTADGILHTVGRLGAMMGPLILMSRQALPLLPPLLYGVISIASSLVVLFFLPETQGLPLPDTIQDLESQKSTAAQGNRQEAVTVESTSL

[1] = 0.03 µM nominal + Benzbromarone 300 µM
[2] = 0.30 µM nominal + Benzbromarone 300 µM

[3H]C(c1ccc2ccccc2c1)C([3H])(NC(=O)C1CCC(CNC(=O)CN2CCN(CC(=O)[O-])CCN(CC(=O)[O-])CCN(CC(=O)[O-])CC2)CC1)C(=O)NCCCCC(NC(=O)NC(CCC(=O)O)C(=O)O)C(=O)O.[Lu+3] (stereo not drawn) [([α,β-^3H]Nal)Lu-PSMA-617]
Accumulation in MATE1 transporter expressing cells (human MATE1; 0.03 µM nominal, 2 min): 0.07 ± 0.01 pmol/mg protein
Accumulation in control cells (human MATE1; 0.03 µM nominal, 2 min): 0.12 ± 0.01 pmol/mg protein
Accumulation, active transport (human MATE1; 0.03 µM nominal, 2 min): -0.05 ± 0.02 pmol/mg protein
Fold accumulation (human MATE1; 0.03 µM nominal, 2 min): 0.60
Accumulation in MATE1 transporter expressing cells (human MATE1; 0.03 µM nominal, 20 min): 0.09 ± 0.00 pmol/mg protein
Accumulation in control cells (human MATE1; 0.03 µM nominal, 20 min): 0.19 ± 0.02 pmol/mg protein
Accumulation, active transport (human MATE1; 0.03 µM nominal, 20 min): -0.10 ± 0.02 pmol/mg protein
Fold accumulation (human MATE1; 0.03 µM nominal, 20 min): 0.49
Accumulation in MATE1 transporter expressing cells (human MATE1; 0.30 µM nominal, 2 min): 0.67 ± 0.05 pmol/mg protein
Accumulation in control cells (human MATE1; 0.30 µM nominal, 2 min): 0.82 ± 0.11 pmol/mg protein
Accumulation, active transport (human MATE1; 0.30 µM nominal, 2 min): -0.15 ± 0.12 pmol/mg protein
Fold accumulation (human MATE1; 0.30 µM nominal, 2 min): 0.81
Accumulation in MATE1 transporter expressing cells (human MATE1; 0.30 µM nominal, 20 min): 0.77 ± 0.12 pmol/mg protein
Accumulation in control cells (human MATE1; 0.30 µM nominal, 20 min): 1.02 ± 0.12 pmol/mg protein
Accumulation, active transport (human MATE1; 0.30 µM nominal, 20 min): -0.26 ± 0.17 pmol/mg protein
Fold accumulation (human MATE1; 0.30 µM nominal, 20 min): 0.75
Substrate assessment (MATE1) (human MATE1; 0.03, 0.30 µM, 2, 20 min): no in vitro substrate
Max. transporter-specific fold accumulation, without inhibitor (human MATE1; 2 min, 0.3 µM): 0.81
Accumulation in OAT4 transporter expressing cells (human OAT4; [1]): 0.03 ± 0.01 pmol/mg protein
Accumulation in control cells (human OAT4; [1]): 0.02 ± 0.00 pmol/mg protein
Accumulation, active transport (human OAT4; [1]): 0.01 ± 0.01 pmol/mg protein
Fold accumulation (human OAT4; [1]): 1.47
Accumulation in OAT4 transporter expressing cells (human OAT4; 0.03 µM nominal, no inhibitor): 0.04 ± 0.01 pmol/mg protein
Accumulation in control cells (human OAT4; 0.03 µM nominal, no inhibitor): 0.03 ± 0.00 pmol/mg protein
Accumulation, active transport (human OAT4; 0.03 µM nominal, no inhibitor): 0.01 ± 0.01 pmol/mg protein
Fold accumulation (human OAT4; 0.03 µM nominal, no inhibitor): 1.22
Accumulation in OAT4 transporter expressing cells (human OAT4; [2]): 0.40 ± 0.12 pmol/mg protein
Accumulation in control cells (human OAT4; [2]): 0.49 ± 0.14 pmol/mg protein
Accumulation, active transport (human OAT4; [2]): -0.09 ± 0.18 pmol/mg protein
Fold accumulation (human OAT4; [2]): 0.81
Accumulation in OAT4 transporter expressing cells (human OAT4; 0.30 µM nominal, no inhibitor): 0.35 ± 0.11 pmol/mg protein
Accumulation in control cells (human OAT4; 0.30 µM nominal, no inhibitor): 0.22 ± 0.05 pmol/mg protein
Accumulation, active transport (human OAT4; 0.30 µM nominal, no inhibitor): 0.13 ± 0.12 pmol/mg protein
Fold accumulation (human OAT4; 0.30 µM nominal, no inhibitor): 1.58
Max. transporter-specific fold accumulation, without inhibitor (human OAT4; 0.3 µM): 1.58
Uptake via transporter (OAT4) (human OAT4; absence and presence of benzbromarone): not taken up
Max. transporter-specific fold accumulation, with inhibitor (human OAT4; Benzbromarone, 0.3 µM): 0.81
